According to PMC13071375, “Restriction endonuclease selective inhibition by β-cyclodextrin sulfate” (Bioscience Reports, 2025):
Several values for one entry are separate records, joined by “and”; a condition that tells them apart may be missing. Identical values can stand only once. Counter-ions that a name gives are not always drawn. Like-named read-outs stand apart in the source and are kept apart here.

Tests used:
HindIII [1] = biological target: T1, HindIII (Haemophilus influenzae, UniProt P43870); settings: read-out: IC50 HindIII; Nl-pBR322 substrate, 40 min digestion at 37°C, Buffer R
Description: (§2) Digestion time course studies were conducted for each RE by incubating 2 μl of NdeI-linearised pBR322 (2.5 ng/μl), 1 μl of RE (1.25 U/μl), 2 μl of appropriate buffer, and 15 μl of molecular biology grade water at 37°C for various times (Supplementary Figure S1). […] These times were used as the digestion time for the RE inhibition assays.
(§3) To determine the effects of β-CDsul treatment on REs, Nl-pBR322 was incubated at 37°C with EcoRI, VspI, or HindIII for the previously determined amount of time.
(§4) β-CDsul and EDTA stock solutions were made in molecular biology grade water, and dilution series were prepared at appropriate concentrations to give the necessary final concentrations of each in the assay mixture. The assay mixture composition was 2 μl of Nl-pBR322 (2.5 ng/μl), 1 μl of RE (1.25 U/μl), 2 μl of appropriate buffer, 1 μl of β-CDsul or EDTA at desired concentration, and 14 μl of molecular biology grade water. As a negative control, 1 μl extra of microbiology grade water was used instead of EDTA or β-CDsul. After the appropriate amount of incubation time at 37°C, the REs were thermally inactivated by incubation at 65°C for 20 min.
(§5) Electrophoresis gel solution was prepared using 0.8% (w/v) agarose (Thermo Scientific™ Agarose I (Molecular Biology Grade)) with 1× TBE Buffer (Thermo Scientific™ TBE Buffer (Tris–borate–EDTA) (10×)). The mixture was heated until the agarose was completely dissolved and the solution became clear. Sybr Safe DNA stain (1% (v/v), Invitrogen™ SYBR™ Safe DNA Gel Stain) was added into the agarose solution. The final solution was poured into the gel tray and cooled down to room temperature (25°C). […]
(§6) Gel images were captured using a UV-transilluminator capturing system (Syngene™ Ingenius 3 Manual Gel Documentation System) with the following parameters: resolution: 3.0 MP, bit depth: 12/16 bit, and wavelength: 302 nm. The images were analysed using GelAnalyzer [19] software by calculating the normalised intensities of fragment bands.

EcoRI = biological target: T2, EcoRI (Escherichia coli, UniProt P00642); type: biochemical
T2 construct: purchased Thermo Fisher Scientific ER0271
Description: as §2, §3, §4
Electrophoresis gel solution was prepared using 0.8% (w/v) agarose (Thermo Scientific™ Agarose I (Molecular Biology Grade)) with 1× TBE Buffer (Thermo Scientific™ TBE Buffer (Tris–borate–EDTA) (10×)). The mixture was heated until the agarose was completely dissolved and the solution became clear. Sybr Safe DNA stain (1% (v/v), Invitrogen™ SYBR™ Safe DNA Gel Stain) was added into the agarose solution. The final solution was poured into the gel tray and cooled down to room temperature (25°C). Ten microliters of samples from digestion experiments was mixed well with 1 μl of 500× diluted SYBR Safe Gel Stain (ThermoFisher Scientific™ Invitrogen, catalogue number S33102) and 1 μl of 5× diluted FlashGel Loading Dye (Lonza Bioscience, catalogue number 50462) and then loaded into wells. A FlashGel™ Dock system was used for electrophoresis with a voltage of 0–300 VDC, power of 15 W, and current of 50 mA.
as §6

HindIII [2] = biological target: T1, HindIII; design: purchased Thermo Fisher Scientific ER0501; method as in PMID 25126898; settings: digestion of λ DNA; cited from earlier work
Nrul = tested on: Nrul; design: method as in PMID 25126898; settings: digestion of λ DNA; cited from earlier work
VspI = type: biochemical; settings: for IC50: Nl-pBR322 substrate, 20 min digestion at 37°C, Buffer O
Description: as §2, §3, §4, §5, §6

EcoRI and VspI [3] = tested on: T3, EcoRI and VspI; assay: Co-digestion assay of Nl-pBR322 with EcoRI and VspI (dual RE system); type: biochemical
T3 construct: purchased Thermo Fisher Scientific ER0271, ER0911
Description: (§1) The digestion time was either variable or fixed at 120 min for the variable concentration experiment to achieve full digestion. The composition of the components with the co-digestion assays was more complex than single digestion systems due to the need for simultaneously optimising the activity of each RE in the non-ideal buffer system of the other RE.

EcoRI and VspI [4] = assay: as above; type: biochemical
Description: as §1

HindIII [5] = biological target: T1, HindIII; assay: biochemical; settings: Nl-pBR322 substrate, 40 min digestion at 37°C, Buffer R
Description: as §2, §3, §4, §5, §6

XapI = tested on: XapI; design: method as in PMID 25581012; settings: cited from earlier work
KpnI = tested on: KpnI; design: method as in PMID 25581012; settings: cited from earlier work
SacI = tested on: SacI; design: method as in PMID 25581012; settings: cited from earlier work
REs = tested on: REs; design: method as in PMID 25126898; settings: cited from earlier work
[6] = Nl-pBR322 substrate, 20 min digestion at 37°C, Buffer EcoRI, read-out: IC50 EcoRI
[7] = 10 μM β-CDsul, time course 30–240 min

T2 sequence (P00642 2-277): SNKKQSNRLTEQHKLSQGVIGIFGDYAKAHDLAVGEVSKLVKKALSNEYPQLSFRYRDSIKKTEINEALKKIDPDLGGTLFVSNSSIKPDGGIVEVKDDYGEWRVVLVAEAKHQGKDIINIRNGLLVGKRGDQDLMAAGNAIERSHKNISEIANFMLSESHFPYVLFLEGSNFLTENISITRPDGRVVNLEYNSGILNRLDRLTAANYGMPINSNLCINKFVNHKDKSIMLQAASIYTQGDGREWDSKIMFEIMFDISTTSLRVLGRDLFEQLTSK
T1 sequence (P43870 whole entry): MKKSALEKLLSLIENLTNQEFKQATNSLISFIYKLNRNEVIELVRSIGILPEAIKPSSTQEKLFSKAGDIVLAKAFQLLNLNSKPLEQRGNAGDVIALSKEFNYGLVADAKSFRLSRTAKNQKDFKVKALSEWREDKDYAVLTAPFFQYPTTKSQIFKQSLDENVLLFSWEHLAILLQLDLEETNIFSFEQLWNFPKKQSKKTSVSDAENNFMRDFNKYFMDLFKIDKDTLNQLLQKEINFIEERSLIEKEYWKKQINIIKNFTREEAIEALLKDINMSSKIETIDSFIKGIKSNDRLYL

O=S(=O)(O)OCC1OC2OC3C(COS(=O)(=O)O)OC(OC4C(COS(=O)(=O)O)OC(OC5C(COS(=O)(=O)O)OC(OC6C(COS(=O)(=O)O)OC(OC7C(COS(=O)(=O)O)OC(OC8C(COS(=O)(=O)O)OC(OC1C(OS(=O)(=O)O)C2OS(=O)(=O)O)C(OS(=O)(=O)O)C8OS(=O)(=O)O)C(OS(=O)(=O)O)C7OS(=O)(=O)O)C(OS(=O)(=O)O)C6OS(=O)(=O)O)C(OS(=O)(=O)O)C5OS(=O)(=O)O)C(OS(=O)(=O)O)C4OS(=O)(=O)O)C(OS(=O)(=O)O)C3OS(=O)(=O)O (stereo not drawn) [β-CDsul, β-cyclodextrin sulfate]
IC50 (HindIII [1]): 65 µM
fold difference in IC50 values, EcoRI vs HindIII or VspI (EcoRI; EcoRI vs HindIII or VspI): 13- to 27 fold
IC50 (EcoRI; [6]): 5 µM
fold more potent at inhibiting EcoRI compared with HindIII (EcoRI; ratio of IC50s, EcoRI vs HindIII): 13 fold
fold more potent at inhibiting EcoRI compared with VspI (EcoRI; ratio of IC50s, EcoRI vs VspI): about 27 fold
IC50 (HindIII [2]): 6 µM
IC50 (Nrul): 3 µM
IC50 (VspI): 133 µM
fold difference in IC50 against VspI and HindIII (VspI; VspI vs HindIII): two-fold
decrease of fragment A concentration (EcoRI action) in EcoRI/VspI co-digestion (EcoRI and VspI [3]; [7]): does not decrease until 240 min
EcoRI inhibition in EcoRI/VspI co-digestion (fragment A concentration) (EcoRI and VspI [3]; between 5 and 10 μM β-CDsul, 120 min, still no Nl-pBR322, VspI less affected): significant increase in EcoRI inhibition
time of maximum concentration of fragment A in EcoRI/VspI co-digestion (EcoRI and VspI [4]; [7]): 60 min
digestion in EcoRI/VspI co-digestion (EcoRI and VspI [4]; Five hundred micromolar β-CDsul, 120 min): no digestion by either RE

O=C(O)CN(CCN(CC(=O)O)CC(=O)O)CC(=O)O [EDTA]
IC50 (HindIII [5]): 13 µM and 12 µM
IC50 (EcoRI; [6]): 18 µM and 17 µM
IC50 (EcoRI; all three enzymes, Nl-pBR322, read-out: range of IC50 values across EcoRI, HindIII and VspI): 12 to 17 µM
IC50 (VspI): 12 µM

O=C1N2CN3C(=O)N4CN5C(=O)N6CN7C(=O)N8CN9C(=O)N%10CN%11C(=O)N%12CN%13C(=O)N%14CN1C1C2N2CN%15C(=O)N(CN%16C(=O)N(CN%17C(=O)N(CN%18C(=O)N(CN%19C(=O)N(CN%20C(=O)N(CN1C2=O)C%14C%13%20)C%12C%11%19)C%10C9%18)C8C7%17)C6C5%16)C4C3%15 (stereo not drawn) [CB7]
IC50 (XapI; linearised pGL3-Basic DNA): ~500 µM
IC50 (XapI; plasmid pGL3-Basic DNA): ~500 µM
IC50 (KpnI; linearised pGL3-Basic DNA): ~200 µM
IC50 (KpnI; plasmid pGL3-Basic DNA): ~90 µM
IC50 (SacI; linearised pGL3-Basic DNA): ~350 µM
IC50 (SacI; plasmid pGL3-Basic DNA): ~250 µM

OC[C@H]1O[C@@H]2O[C@H]3[C@H](O)[C@@H](O)[C@@H](O[C@H]4[C@H](O)[C@@H](O)[C@@H](O[C@H]5[C@H](O)[C@@H](O)[C@@H](O[C@H]6[C@H](O)[C@@H](O)[C@@H](O[C@H]7[C@H](O)[C@@H](O)[C@@H](O[C@H]8[C@H](O)[C@@H](O)[C@@H](O[C@H]1[C@H](O)[C@H]2O)O[C@@H]8CO)O[C@@H]7CO)O[C@@H]6CO)O[C@@H]5CO)O[C@@H]4CO)O[C@@H]3CO [β-CD]
inhibition of REs (REs): no inhibition was observed
